Values quoted from earlier work, collected in PMC12281572.
Several values for one entry are separate records, joined by “and”; a condition that tells them apart may be missing. Equal values may be shown once.

test: FTIR, 4-fluorophenol as donor (the pK_BHX database, per the paper); conditions: CCl4; 25 C

SMILES | pK_BHX (log10 Kf of the 1:1 H-bond complex with 4-fluorophenol, by FTIR)
c1ccsc1 | -0.5 log units
COc1ccc(N=CN(C)C)cc1 | 2.08 log units
Oc1cccc(C(F)(F)F)c1 | -0.36 log units
CCSSCC | -0.4 log units
CCCCCCl | -0.38 log units
COc1ccc(C(=S)N(C)C)cc1 | 1.16 log units
Cc1cccc(C)c1[N+](=O)[O-] | 0.29 log units
FC1C2CC3CC(C2)C(F)C1C3 (stereo not shown) | 0.48 log units
O=C1CCCCCO1 | 1.63 log units
NCc1cc(Cl)cc(Cl)c1 | 1.27 log units
O=c1c2ccccc2oc2ccccc12 | 1.36 log units
O=C1CCCC1 | 1.27 log units
c1ccc(C(c2ccccc2)c2ccccc2)cc1 | -0.5 log units
Cc1cccc(C)c1 | -0.28 log units
COc1ccc(C#N)cc1 | 0.97 log units
CC(C)(C)N=Cc1ccccc1 | 1.29 log units
COC(C)=O | 1.0 log units
CC(C)(C)c1ccccn1 | 1.42 log units
O=C1CCCCCCCCCCC1 | 1.23 log units
NCCCCCCN | 2.21 log units
CCCN | 2.2 log units
C1CN2CCN1CC2 | 2.33 log units
CCCCN(C=O)CCCC | 2.17 log units
CN(C)CCCn1c2ccccc2c2ccccc21 | 1.88 log units
CC(C)S | -0.1 log units

SMILES | pK_BHX (log10 Kf of the 1:1 H-bond complex with 4-fluorophenol, by FTIR)
CC1(C)CCCC(C)(C)N1 | 1.88 log units
COc1ccc(C(C)=O)cc1 | 1.33 log units
O=c1occo1 | 0.69 log units
COC(=O)OC | 0.82 log units
O=C(Cl)N(c1ccccc1)c1ccccc1 | 0.75 log units
CN(C)C(=O)N(c1ccccc1)c1ccccc1 | 2.08 log units
c1ccc2c(c1)ccc1ccccc12 | -0.53 log units
Cn1cccn1 | 1.84 log units
CCO | 1.02 log units
CCOC(=O)C1CC1 | 1.12 log units
CCOC(=O)c1ccc(C(=O)OCC)cc1 | 0.76 log units
Cc1ccc(C)c(C)c1C | -0.14 log units
Cc1ccccn1 | 2.03 log units
CCSC | 0.18 log units
CCCCNC | 2.24 log units
N#Cc1ccc(F)cc1 | 0.72 log units
C1CCOCC1 | 1.23 log units
CNCCNC | 2.29 log units
CCCCSCCCC | 0.23 log units
Cc1cccnc1 | 2.0 log units
c1ccc2nc3ccccc3cc2c1 | 1.95 log units
CN(C)C=Nc1ccccc1 | 1.9 log units
O=C(c1ccccc1)N(c1ccccc1)c1ccccc1 | 1.61 log units
O=S1OCCO1 | 0.87 log units
c1ccc2c(c1)CCO2 | 0.21 log units

SMILES | pK_BHX (log10 Kf of the 1:1 H-bond complex with 4-fluorophenol, by FTIR)
CCN(CC)C(=O)C(C)(C)C | 2.13 log units
CN1CCC(Cl)CC1 | 1.7 log units
CN1C2CCCC1CC2 | 2.39 log units
CCN(CC)C(=O)N(CC)CC | 2.43 log units
CC(=Nc1ccc(Br)cc1)Nc1ccc(C)cc1 | 1.58 log units
C#CCCC#C | -0.43 log units
C(=NCc1ccccc1)c1ccccc1 | 1.18 log units
OC(C(F)(F)F)C(F)(F)F | -0.96 log units
O=c1cc(-c2ccccc2)oc2ccccc12 | 1.99 log units
CCCC(=O)c1ccccc1 | 1.04 log units
ClCCCCCl | -0.47 log units
O=C(c1ccccc1)c1ccccc1 | 1.07 log units
CN(C)C=Nc1ccc(F)cc1 | 1.8 log units
CS(C)=O | 2.54 log units
Cc1nc2ccccc2o1 | 1.48 log units
C1COCO1 | 0.45 log units
CC(C)c1cc(C(C)C)cc(C(C)C)c1 | -0.18 log units
CO | 0.82 log units
c1ccc2c(c1)CCCN2 | 0.7 log units
O=C1c2ccccc2Cc2ccccc21 | 1.25 log units
COc1ccc(C(=O)c2ccccc2)cc1 | 1.27 log units
c1ccc2c(c1)OCCO2 | -0.23 log units
FCCCF | -0.27 log units
Fc1cccc(F)n1 | 0.14 log units

Second part, the compound after the results:

pK_BHX (log10 Kf of the 1:1 H-bond complex with 4-fluorophenol, by FTIR) | SMILES
2.59 log units | CCCN=CN(C)C
1.45 log units | CCOC(=O)c1ccc(N(C)C)cc1
1.82 log units | CCN(CC)c1ccc(C(C)=O)cc1
1.82 log units | CC(=Nc1ccc(C)cc1)N(C)c1ccc(C)cc1
1.06 log units | CCOC(=O)C12CC3CC(CC(C3)C1)C2
-0.24 log units | CN(C)c1cccc2cccc(N(C)C)c12
1.08 log units | CCOC(=O)CC
0.52 log units | N#Cc1cc(Cl)cc(Cl)c1
2.16 log units | C1=CCNCC1
-0.13 log units | C=CSCC
2.92 log units | CN(C)C1=CC(=O)CC(C)(C)C1
1.41 log units | O=CN(c1ccccc1)c1ccccc1
-0.41 log units | COC(C(F)(F)F)C(F)(F)F
1.25 log units | CC(=O)c1ccc(C(C)(C)C)cc1
1.7 log units and 1.52 log units | CC(=O)c1ccc(N=CN(C)C)cc1
1.1 log units | CN(C)C=NC(=S)SCc1ccccc1
1.37 log units | Ic1cccnc1
1.28 log units | NCc1cc(F)cc(F)c1
1.06 log units | CCN(CC)C(=O)C(F)(F)F
1.72 log units | NC1CC1
2.3 log units | CNC(C)=O

pK_BHX (log10 Kf of the 1:1 H-bond complex with 4-fluorophenol, by FTIR) | SMILES
1.04 log units | CCOC(=O)C(C)(C)C
2.07 log units | CN(C)C(=O)c1ccc(Br)cc1
1.21 log units | CCCCC(=O)CCCC
1.65 log units | c1ccnnc1
0.66 log units and 0.53 log units | CCOC(=O)c1ccc(C#N)cc1
1.74 log units | O=C(N(c1ccccc1)c1ccccc1)N(c1ccccc1)c1ccccc1
-0.37 log units | c1ccc(C2CC2)cc1
1.99 log units | CN=C(c1ccc([N+](=O)[O-])cc1)N(C)C
-0.1 log units | CCC#CCC
1.14 log units | CCN(C)Cc1cccc(F)c1
2.48 log units | COc1ccccc1C(=O)N(C)C
3.24 log units | CCCC[N+](CCCC)(CCCC)[N-]C#N
0.41 log units | Cc1cccc(N(C)C)c1
1.32 log units and 1.23 log units | CN(C)C=Nc1ccc(C#N)cc1
1.36 log units | O=C(C1CC1)C1CC1
2.47 log units | CC(=O)N(C(C)C)C(C)C
3.12 log units | Cc1cc[n+]([O-])cc1
1.52 log units | FC(F)(F)c1cccc(C2=NCCC2)c1
2.45 log units | CC(=O)N1CCCCC1
-0.54 log units | CC(C)(C)c1cccc(C(C)(C)C)n1
